Test [1] concerns PHRF1 (RP). The test can be described thus: dCypher AlphaScreen Phase B (full peptide screen). The format is binding, human. The following applies: reader 15 nM, 100 nM peptide, 23 °C, n = 2. The procedure: (§1) X-axes are log(protein concentration (M)) at constant peptide concentration (100 nM); Y-axes are AlphaScreen counts, representing relative strength of binding (n = 2; error bars are S.D.). i Heat map represents relative binding to H3 N-terminal peptides (left) by PHD-containing GST-tagged proteins (top) using the dCypher AlphaScreen platform. Protein concentrations can be found in Additional file 5: Table S4. Binding strength is indicated by color gradient from green to yellow (stronger to weaker). […] Alpha counts (n = 2) were normalized individually for each protein to the highest signal for each respective assay. For full dCypher peptide screen data, see Additional file 4: Table S3
(§2) Once the optimal protein concentration ranges for each of the eight readers were determined, we conducted the full dCypher peptide screen (293 histone peptides) (Fig. 3i; Additional file 4: Table S3).
(§3) The dCypher peptide screen assay was performed as previously described. Briefly, 5 μL of GST-tagged reader domains (optimal protein concentration for library screening determined by initial binding curves to candidate peptides) were incubated with 5 μL of 400 nM (100 nM Final) biotinylated histone peptides (EpiCypher) for 30 min at 23 °C in 1× AlphaLISA Epigenetics buffer + epigenetics buffer supplement (PerkinElmer, AL1008) in a 384-well plate. A 10 μL mix of 5 µg/mL (2.5 μg/mL final) glutathione Acceptor beads (PerkinElmer, AL109M) and 10 μg/mL (5 μg/mL final) streptavidin Donor beads (PerkinElmer, 6760002) was prepared in 1× [Epigenetics buffer + supplement] and added to each well. Plates were incubated at 23 °C in subdued lighting for 60 min and AlphaLISA signal measured on a PerkinElmer 2104 EnVision (680 nm laser excitation, 570 nm emission filter ± 50 nm bandwidth).
(§4) Supplementary file 13072_2020_328_MOESM4_ESM.xlsx: Additional file 4: Table S3. dCypher Results. Excel Tab Peptide Phase A is a compiled set of binding data: chromatin reader titration vs. several peptide targets. Data is presented as raw Alpha counts in duplicates at each concentration tested. Excel Tab Peptide Phase B is a compiled set of binding data: chromatin reader at optimized concentrations vs. entire 293 peptide library. Data is presented as the average and standard deviation of duplicates. […] Key: red = strong binding; blue = weak/no binding.
On the technique in general: In Alpha technology, singlet oxygen from a donor bead excites a nearby acceptor bead.

For a further test, the system named is CHD4 (PPCC). Briefly: dCypher AlphaScreen Phase B (full peptide screen). Conditions: reader 0.65 nM, 100 nM peptide, 23 °C, n = 2. The format is binding, human. The procedure:
as §1, §2, §3, §4

A further test has as its system KDM5B (PHD1). The test can be described thus: Peptide pulldown (immunoblot). The class given is binding, human. Conditions: n = 2. The procedure: (§5) The 31 GST-tagged PHD readers identified in the PHD finger domain array were expressed and purified as previously. Histone peptide arrays and peptide pulldown assays were conducted as recently described (specifically, the optimized protocol from Petell et al. for the former).
(§6) Figure S5. Peptide Pulldowns with KDM7A and KDM5B (PPC2W2). Representative immunoblot analysis of peptide pulldowns for the PHD fingers of KDM7A and KDM5B (PHD1) with the peptides indicated on the top of the image (n=2).
A general note: In western blotting, separated proteins are transferred to a membrane and probed.

In test [2] the test system is KDM5B (PHD3). The test can be described thus: PHD finger domain microarray. The format is binding, human. From the text: (§7) To define the histone binding preferences of the PHD finger proteome, we expressed and purified 123 annotated human PHD-containing domains as GST-tagged recombinant fusions from E. coli. The recombinant proteins consisted of either PHD fingers in isolation, or as tandem domains if a given PHD finger was located adjacent to another reader domain (e.g., one or more PHD fingers, Tudor, chromo and/or bromodomains) (Additional file 1: Table S1). These GST fusions were printed in duplicate on nitrocellulose-coated microarray slides and probed with biotinylated peptides that represented the N-termini of H3, H4, H2A or H2B (Fig. 1a and Additional file 2: Figure S1). As the majority of PHD readers thus far characterized are H3K4me0/3 readers, we included additional peptides (H3K4 as either mono-, di-, or trimethylated) to further determine any H3K4 methyl preference (Additional file 2: Figure S2 and Fig. 1b). As a control, we also probed these microarrays with an α-Tubulin peptide (a.a. 30–50) that would not be predicted to interact with PHD fingers (Additional file 2: Figure S1). […] We also cannot exclude the possibility that some PHD fingers might not be functionally active on the microarrays (perhaps due to misfolding or the lack of an important adjacent region).
(§8) The protein domain microarray was designed to include 123 GST-tagged PHD-domain containing recombinant proteins. Protein domain microarray development and probing was as previously. Briefly, recombinant proteins were synthesized and cloned into pGEX-4T-1 vector by Biomatik Corporation. These GST-PHD readers were subsequently expressed, purified, and spotted in duplicate onto nitrocellulose-coated glass slides (Oncyte Avid slides, Grace Bio-Labs) using a pin arrayer (Aushon 2470, Aushon). For probing, microarray slides were blocked with 3% milk, 3% bovine serum albumin, 0.1% Tween 20 in PBS. Biotinylated peptides were pre-labeled with streptavidin-Cy3 fluorophore (GE Healthcare) and incubated with the blocked array slides. Slides were then washed with PBST and allowed to air dry. Fluorescent interactions were visualized using a GenePix 4200A Microarray Scanner (Molecular Devices).

For test [3], the system named is PHRF1 (RP). The test can be described thus: PHD finger domain microarray. The format is binding, human.
Source text: as §7, §8

The next test relates to CHD5 (PCC). Briefly: PHD finger domain microarray. The format is binding, human.
Source text: as §7, §8

In another test the test system is MLL5 PHD finger. Briefly: PHD finger domain microarray. The format is binding, human.
Source text: as §7, §8

The subject of another test is PHD finger of MLL5. The following applies: cited from earlier work. From the text: Our findings from domain and peptide microarray confirm the reported binding preferences of many PHD proteins such as those of the ING and PHF families. […] We surmise that the basis of this differenc ...
The subject of the next test is KDM7A PHD finger. Briefly: Peptide pulldown (immunoblot). The format is binding, human. Conditions: n = 2. The procedure:
as §5, §6

Test [4] concerns KDM5B (PHD3). The following applies: cited from earlier work. From the text: While findings between the domain microarrays and peptide microarrays largely agreed, there were some interesting differences. […] It should be noted that the comparison made here is between the H3K4me3 + K9ac + K18ac and the H3K4me0 + K9ac + K18ac peptides. Due to the limited binding, if any, ...
A further test deals with CHD4. Conditions: cited from earlier work. From the text: Plant homeodomain fingers comprise one of the largest families of reader domains, with over 100 human proteins containing this module. PHD fingers are Zn-coordinating domains that generally recognize unmodified or methylated lysines. To date, the majority of those characterized bind to histone H3 tails either methylated at K4 [7], or unmodified in that position (i.e., KDM5B PHD3 versus KDM5B PHD1 [10, 11] or PHF21A, also known as BHC80 [12]).

Entries after “also recorded” stand apart in the source; their conditions may differ. Where two headings read alike, the source gives them in different places.

These results are taken from PMC6979384, “Characterization of the plant homeodomain (PHD) reader family for their histone tail interactions” (Epigenetics & Chromatin, 2020).

Take “H3 (1-20): unmodified H3 N-terminal peptide (1–20)”: the binding entry is “more limited interactions” with PHRF1 (RP) [1] and “clearer specificity for the H3K4me0 peptide over the methylated species” in the test on CHD4 (PPCC). Besides, the “binding in peptide pulldown” value in the test with KDM5B (PHD1) is given as “reads H3K4me0”. Further, the binding preference result with KDM5B (PHD3) [2] was “no preference”; in the test on PHRF1 (RP) [3] (listed as H3K4me0) it was “no preference on the domain array”; in the test with PHRF1 (RP) [3] (listed as unmodified H3 tail) it was “readers of the unmodified H3 tail”; in the test on CHD5 (PCC), “no preference”.

With H3K4me2: H3 1-20 [Peptide H3K4me2], the binding preference entry in the test with MLL5 PHD finger is recorded as “strong preference”. Also, the reported binding result in the test with PHD finger of MLL5 is recorded as “discrepancies in whether the PHD finger of MLL5 is a H3K4me3 or H3K4me2 reader”.

For the substance H3K4me3: H3 1-20 [Peptide H3K4me3], in the test with KDM7A PHD finger, the “binding in peptide pulldown” value is “binds H3K4me3”. For the same substance, the binding preference result in the test on MLL5 PHD finger is listed as “strong preference”; in the test on KDM5B (PHD3) [2], “consistent with their current classification as H3K4me3 binders; also recorded: no preference”; in the test with PHRF1 (RP) [3] it was “no preference”; with CHD5 (PCC), “no preference”. Also, the reported binding entry is “discrepancies in whether the PHD finger of MLL5 is a H3K4me3 or H3K4me2 reader” in the test on PHD finger of MLL5 and “reported to bind H3K4me3” in the test with KDM5B (PHD3) [4].

Consider H3K9me3: H3 1-20 [Peptide H3K9me3], for which the binding entry in the test on PHRF1 (RP) [1] was “more limited interactions”; in the test with CHD4 (PPCC) it was “ability to bind to the peptides containing H3K9me3”. In addition, the reported binding entry with CHD4 is given as “annotated to recognize H3K9me3; also recorded: reported as readers of H3K9 trimethylation”.
